The values below come from patent US20120322752A1, “SOLID DISPERSIONS CONTAINING 20-O-beta-D-GLUCOPYRANOSYL-20(S)-PROTOPANAXADIOL” (priority 2009, published 2012).

Data set [1] in a line: Dissolution test (USP paddle method, purified water). Format: physicochemical. The following applies: after 3 hours; 900 mL purified water, paddle 50 rpm, 25 mg IH-901 equivalent. The protocol: The dissolution profile of a drug from the solid dispersion prepared in Example 2 was evaluated. IH-901, which had been used to prepare the solid dispersion of […], was used as a control group. The dissolution test was carried out under the conditions that the second method (paddle method) of the dissolution test methods in the general test method of the United states Phamacopoeia was used, 900 mL of purified water was used as a test liquid, and the rotational speed of a paddle was 50 rpm. 25 mg of IH-901 (control group) or the solid dispersion prepared in Example 2 corresponding to 25 mg of IH-901 was dissolved in a dissolution liquid, left for 180 minutes and then filtered. Then, the content of IH-901 in the filtered solution was measured by high performance liquid chromatography. The high performance liquid chromatograph is commercially available from Hitachi Co., Ltd. The analysis of high performance liquid chromatography was conducted under the conditions of a C18 column (Luna, 5 um, 250 mm, Phenomenex Corp., U.S.A), mobile phase of acetonitrile:water (70:30), a flow rate of 1 mL/min, a detection wavelength of 205 nm and an injection volume of 50 ul. In FIG. 1, the X-axis represents time passage, and the Y-axis represents dissolution rate (%). Further, in FIG. 1, the raw material is represented as ◯, and the solid dispersion prepared in Example 2 is represented by […].

The conditions of data set [2]: oral administration; cited from earlier work.
The conditions of data set [3]: aqueous solution including 40% of a cosolvent and 10% of a surfactant or inclusion compound forming agent (hydroxypropyl-β-cyclodextrin); cited from earlier work.

Consider `CC(C)=CCC[C@](C)(O[C@@H]1O[C@H](CO)[C@@H](O)[C@H](O)[C@H]1O)[C@H]1CC[C@]2(C)[C@@H]1[C@H](O)C[C@@H]1[C@@]3(C)CC[C@H](O)C(C)(C)[C@@H]3CC[C@]12C` [IH-901, 20-O-β-D-glucopyranosyl-20(S)-protopanaxadiol], for which the dissolution rate result in data set [1] is “about 3%”. For the same compound, in data set [2], the bioavailability is on record as 3.5%. The “solubility of IH-901 in an aqueous solution” value in data set [3] was at most 10000 µg/mL.

By bioavailability is commonly meant the share of a dose that reaches the circulation, judged against a reference dose that is usually intravenous.
